Test results: patent US20110319424A1, “NAPHTHYRIDIN-2(1H) -ONE COMPOUNDS USEFUL AS ANTIBACTERIALS” (priority 2008, published 2011)

test system: Mycobacterium tuberculosis H37Rv; experiment: Mycobacterium tuberculosis H37Rv inhibition assay (MIC, resazurin fluorescence); format: cell-based; conditions: ATCC 25618 / H37Rv, 144 h, H37Rv strain (ATCC25618), Middlebrook 7H9, six days at 37° C. then resazurin 48 hours

Structure (SMILES)	MIC
O=c1ccc2ncc(F)cc2n1CCN1CCC(NCc2ccc(Br)cn2)CC1 [Example 1, 1-[2-(4-{[(5-Bromo-2-pyridinyl)methyl]amino}-1-piperidinyl)ethyl]-7-fluoro-1,5-naphthyridin-2(1H)-one]	≤ 1 µg/mL
Cl.Cl.O=c1ccc2ncc(F)cc2n1CCN1CCC(NCc2ccc(Br)cn2)CC1 [Example 1b, 1-[2-(4-{[(5-Bromo-2-pyridinyl)methyl]amino}-1-piperidinyl)ethyl]-7-fluoro-1,5-napthyridin-2(1H)-one dihydrochloride]	≤ 1 µg/mL
COc1cnc2ccc(=O)n(CCN3CCC(NCc4cnc(Br)s4)CC3)c2c1 [Example 2, 1-[2-(4-{[(2-Bromo-1,3-thiazol-5-yl)methyl]amino}-1-piperidinyl)ethyl]-7-(methyloxy)-1,5-naphthyridin-2(1H)-one]	≤ 1 µg/mL
COc1cnc2ccc(=O)n(CCN3CCC(NCc4cnc(Br)s4)CC3)c2c1.Cl [Example 2b, 1-[2-(4-{[(2-Bromo-1,3-thiazol-5-yl)methyl]amino}-1-piperidinyl)ethyl]-7-(methyloxy)-1,5-naphthyridin-2(1H)-one hydrochloride]	≤ 1 µg/mL
O=c1ccc2ncc(F)cc2n1CCN1CCC(NCc2ccc(Cl)c(Cl)c2)CC1 [Example 3, 1-[2-(4-{[(3,4-Dichlorophenyl)methyl]amino}-1-piperidinyl)ethyl]-7-fluoro-1,5-naphthyridin-2(1H)-one]	≤ 1 µg/mL
Cl.Cl.O=c1ccc2ncc(F)cc2n1CCN1CCC(NCc2ccc(Cl)c(Cl)c2)CC1 [Example 3b, 1-[2-(4-{[(3,4-Dichlorophenyl)methyl]amino}-1-piperidinyl)ethyl]-7-fluoro-1,5-naphthyridin-2(1H)-one dihydrochloride]	≤ 1 µg/mL
COc1cnc2ccc(=O)n(CCN3CCC(NCc4ccc(C(F)(F)F)nc4)CC3)c2c1 [Example 4, 7-(Methyloxy)-1-{2-[4-({[6-(trifluoromethyl)-3-pyridinyl]methyl}amino)-1-piperidinyl]ethyl}-1,5-naphthyridin-2(1H)-one]	≤ 1 µg/mL
COc1cnc2ccc(=O)n(CCN3CCC(NCc4ccc(C(F)(F)F)nc4)CC3)c2c1.Cl [Example 4b, 7-(Methyloxy)-1-{2-[4-({[6-(trifluoromethyl)-3-pyridinyl]methyl}amino)-1-piperidinyl]ethyl}-1,5-naphthyridin-2(1H)-one hydrochloride]	≤ 1 µg/mL
COc1cnc2ccc(=O)n(CCN3CCC(NCc4nc(C)c(C)s4)CC3)c2c1 [Example 6, 1-[2-(4-{[(4,5-Dimethyl-1,3-thiazol-2-yl)methyl]amino}-1-piperidinyl)ethyl]-7-(methyloxy)-1,5-naphthyridin-2(1H)-one]	≤ 2.4 µg/mL
O=c1ccc2ncccc2n1CCN1CCC(NCc2ccc(Cl)c(Cl)c2)CC1 [Example 8, 1-[2-(4-{[(3,4-Dichlorophenyl)methyl]amino}-1-piperidinyl)ethyl]-1,5-naphthyridin-2(1H)-one]	≤ 1 µg/mL
Cl.Cl.O=c1ccc2ncccc2n1CCN1CCC(NCc2ccc(Cl)c(Cl)c2)CC1 [Example 8b, 1-[2-(4-{[(3,4-Dichlorophenyl)methyl]amino}-1-piperidinyl)ethyl]-1,5-naphthyridin-2(1H)-one dihydrochloride]	≤ 1 µg/mL
O=c1ccc2ncccc2n1CCN1CCC(NCc2ccc(Br)nc2)CC1 [Example 9, 1-[2-(4-{[(6-Bromo-3-pyridinyl)methyl]amino}-1-piperidinyl)ethyl]-1,5-naphthyridin-2(1H)-one]	≤ 2.4 µg/mL
COc1cnc2ccc(=O)n(CCN3CCC(NCc4ccc(Cl)c(Cl)c4)CC3)c2c1 [Example 11, 1-[2-(4-{[(3,4-Dichlorophenyl)methyl]amino}-1-piperidinyl)ethyl]-7-(methyloxy)-1,5-naphthyridin-2(1H)-one]	≤ 1 µg/mL
COc1cnc2ccc(=O)n(CCN3CCC(NCc4ccc(Cl)c(Cl)c4)CC3)c2c1.Cl [Example 11b, 1-[2-(4-{[(3,4-Dichlorophenyl)methyl]amino}-1-piperidinyl)ethyl]-7-(methyloxy)-1,5-naphthyridin-2(1H)-one hydrochloride]	≤ 1 µg/mL
COc1cnc2ccc(=O)n(CCN3CCC(NCc4ccc(Cl)c(Cl)c4)CC3)c2c1.Cl.Cl [Example 11c, 1-[2-(4-{[(3,4-Dichlorophenyl)methyl]amino}-1-piperidinyl)ethyl]-7-(methyloxy)-1,5-naphthyridin-2(1H)-one dihvdrochloride]	≤ 1 µg/mL
COc1cnc2ccc(=O)n(CCN3CCC(NCc4ccc(Cl)cc4)CC3)c2c1 [Example 12, 1-[2-(4-{[(4-Chlorophenyl)methyl]amino}-1-piperidinyl)ethyl]-7-(methyloxy)-1,5-naphthyridin-2(1H)-one]	≤ 1 µg/mL
COc1cnc2ccc(=O)n(CCN3CCC(NCc4ccc(Cl)cc4)CC3)c2c1.Cl.Cl [Example 12b, 1-[2-(4-{[(4-Chlorophenyl)methyl]amino}-1-piperidinyl)ethyl]-7-(methyloxy)-1,5-naphthyridin-2(1H)-one dihydrochloride]	≤ 1 µg/mL
COc1cnc2ccc(=O)n(CCN3CCC(NCc4ccc(Cl)cc4)CC3)c2c1.Cl [Example 12c, 1-[2-(4-{[(4-Chlorophenyl)methyl]amino}-1-piperidinyl)ethyl]-7-(methyloxy)-1,5-naphthyridin-2(1H)-one hydrochloride]	≤ 1 µg/mL

Structure (SMILES)	MIC
O=c1ccc2ncc(F)cc2n1CCN1CCC(NCc2ccc(Br)o2)CC1 [Example 34, 1-[2-(4-{[(5-bromo-2-furanyl)methyl]amino}-1-piperidinyl)ethyl]-7-fluoro-1,5-naphthyridin-2(1H)-one]	≤ 2.4 µg/mL
O=c1ccc2ncc(F)cc2n1CCN1CCC(NCc2cc(Cl)ccc2Cl)CC1 [Example 38, 1-[2-(4-{[(2,5-dichlorophenyl)methyl]amino}-1-piperidinyl)ethyl]-7-fluoro-1,5-naphthyridin-2(1H)-one]	≤ 2.4 µg/mL
O=c1ccc2ncccc2n1CCN1CCC(NCc2ccc(Br)s2)CC1 [Example 48, 1-[2-(4-{[(5-bromo-2-thienyl)methyl]amino}-1-piperidinyl)ethyl]-1,5-naphthyridin-2(1H)-one]	≤ 2.4 µg/mL
O=c1ccc2ncccc2n1CCN1CCC(NCc2cnc(Br)s2)CC1 [Example 49, 1-[2-(4-{[(2-bromo-1,3-thiazol-5-yl)methyl]amino}-1-piperidinyl)ethyl]-1,5-naphthyridin-2(1H)-one]	≤ 2.4 µg/mL
COc1ccc(CNC2CCN(CCn3c(=O)ccc4ncccc43)CC2)cc1Cl [Example 51, 1-{2-[4-({[3-chloro-4-(methyloxy)phenyl]methyl}amino)-1-piperidinyl]ethyl}-1,5-naphthyridin-2(1H)-one]	≤ 2.4 µg/mL
COc1cnc2ccc(=O)n(CCN3CCC(NCc4nc(Br)cs4)CC3)c2c1 [Example 64, 1-[2-(4-{[(4-bromo-1,3-thiazol-2-yl)methyl]amino}-1-piperidinyl)ethyl]-7-(methyloxy)-1,5-naphthyridin-2(1H)-one]	≤ 2.4 µg/mL
COc1cnc2ccc(=O)n(CCN3CCC(NCc4ccc(F)c(C)n4)CC3)c2c1 [Example 68, 1-[2-(4-{[(5-fluoro-6-methyl-2-pyridinyl)methyl]amino}-1-piperidinyl)ethyl]-7-(methyloxy)-1,5-naphthyridin-2(1H)-one]	≤ 2.4 µg/mL
O=c1ccc2ncccc2n1CCN1CCC(NCc2cc(Br)cs2)CC1 [Example 81, 1-[2-(4-{[(4-bromo-2-thienyl)methyl]amino}-1-piperidinyl)ethyl]-1,5-naphthyridin-2(1H)-one]	≤ 2.4 µg/mL
O=c1ccc2ncc(F)cc2n1CCN1CCC(NCc2cccc(Cl)c2)CC1 [Example 103, 1-[2-(4-{[(3-chlorophenyl)methyl]amino}-1-piperidinyl)ethyl]-7-fluoro-1,5-naphthyridin-2(1H)-one]	≤ 2.4 µg/mL
COc1cnc2ccc(=O)n(CCN3CCC(NCc4cncc(Cl)n4)CC3)c2c1 [Example 111, 1-[2-(4-{[(6-chloro-2-pyrazinyl)methyl]amino}-1-piperidinyl)ethyl]-7-(methyloxy)-1,5-naphthyridin-2(1H)-one]	≤ 2.4 µg/mL
COc1cnc2ccc(=O)n(CCN3CCC(NCc4ccnc(C(F)(F)F)n4)CC3)c2c1 [Example 113, 7-(methyloxy)-1-{2-[4-({[2-(trifluoromethyl)-4-pyrimidinyl]methyl}amino)-1-piperidinyl]ethyl}-1,5-naphthyridin-2(1H)-one]	≤ 2.4 µg/mL
COc1cnc2ccc(=O)n(CCN3CCC(NCc4cc(C)cc(C)n4)CC3)c2c1 [Example 114, 1-[2-(4-{[(4,6-dimethyl-2-pyridinyl)methyl]amino}-1-piperidinyl)ethyl]-7-(methyloxy)-1,5-naphthyridin-2(1H)-one]	≤ 2.4 µg/mL
COc1cnc2ccc(=O)n(CCN3CCC(NCc4ccc(Cl)cn4)CC3)c2c1 [Example 116]	≤ 2.4 µg/mL
CC(C)(C)c1ccc(CNC2CCN(CCn3c(=O)ccc4ncc(F)cc43)CC2)cc1 [Example 121, 1-{2-[4-({[4-(1,1-dimethylethyl)phenyl]methyl}amino)-1-piperidinyl]ethyl}-7-fluoro-1,5-naphthyridin-2(1H)-one]	≤ 2.4 µg/mL
Cc1cc(CNC2CCN(CCn3c(=O)ccc4ncc(F)cc43)CC2)cnc1C [Example 125, 1-[2-(4-{[(5,6-dimethyl-3-pyridinyl)methyl]amino}-1-piperidinyl)ethyl]-7-fluoro-1,5-naphthyridin-2(1H)-one]	≤ 2.4 µg/mL
Cc1ncc(CN[C@H]2CCN(CCn3c(=O)ccc4ncc(F)cc43)C[C@H]2O)cc1Br [Example 130, 1-[2-((3R,4S)-4-{[(5-bromo-6-methyl-3-pyridinyl)methyl]amino}-3-hydroxy-1-piperidinyl)ethyl]-7-fluoro-1,5-naphthyridin-2(1H)-one]	≤ 2.4 µg/mL
CC1(NCc2ccc(C(F)(F)F)nc2)CCN(CCn2c(=O)ccc3ncc(F)cc32)CC1 [Example 131, 7-fluoro-1-{2-[4-methyl-4-({[6-(trifluoromethyl)-3-pyridinyl]methyl}amino)-1-piperidinyl]ethyl}-1,5-naphthyridin-2(1H)-one]	≤ 2.4 µg/mL
COc1cnc2ccc(=O)n(CCN3CCC(C)(NCc4ccc(Cl)c(Cl)c4)CC3)c2c1 [Example 132]	≤ 2.4 µg/mL
